Data from patent US7504517B2, “Kv1.5 potassium channel inhibitors” (Wyeth, priority 2006, dated 2009).
Where a name gives a salt, the structure may show the parent alone.

Key:
Kv1.5 = target: T1, Kv1.5 (Homo sapiens, UniProt P22460); experiment: Kv1.5 Patch Clamp EP; format: cell-based; settings: whole cell patch clamp; for IC50: HEK or LTK- cells, at least four concentrations, n=3
T1 construct: expressed in transfected cells; host or cells: HEK or LTK- cells
Protocol: The external solution is standard Tyrodes solution. […] Inhibition was measured at the end of the 1 second pulses and expressed relative to controls. Initial Kv1.5 inhibition is estimated by single point determinations done at 1 μM.

L-type calcium channels = experiment: FLIPR L-Type Calcium Channel Assay; format: cell-based, murine; settings: HL-1 cells expressing endogenous L-type calcium channels; calcium influx after 20 mM KCl; read-out: L-type Ca^2+ IC50
Protocol: 50 μL per well test compounds are added to the plates and further incubated for 15 min. in a 5% CO2 37° C. incubator. All final solutions contain the anion exchange inhibitor, probenecid (2.5 mM). The 96-well plates are then placed in the center position of the FLIPR 1 (Fluorometric Imaging Plate Reader, Molecular Devices Corporation). Cell monolayers in each well are simultaneously illuminated at 488 nm with an Argon ion laser, and fluorescence emission is monitored using a 510-570 nm bandpass filter and a cooled CCD camera. To depolarize the plasma membrane and activate L-type calcium channels, 50 μL per well of 20 mM KCl (final concentration) are dispensed simultaneously to all 96 wells using the FLIPR's automatic 96-well pipettor. Fluorescence measurements are captured for 5 min. following KCl addition. Calcium influx, expressed as % control, is calculated for each concentration of test compound and concentration-response curves and IC50 values are generated using GraphPad Prism 4.0.

HERG = HERG (Homo sapiens, UniProt Q12809); experiment: HERG Patch Clamp EP; settings: for inhibition at 10 µM: human, HEK cells stably overexpressing HERG
Sequence of HERG (Q12809 whole entry): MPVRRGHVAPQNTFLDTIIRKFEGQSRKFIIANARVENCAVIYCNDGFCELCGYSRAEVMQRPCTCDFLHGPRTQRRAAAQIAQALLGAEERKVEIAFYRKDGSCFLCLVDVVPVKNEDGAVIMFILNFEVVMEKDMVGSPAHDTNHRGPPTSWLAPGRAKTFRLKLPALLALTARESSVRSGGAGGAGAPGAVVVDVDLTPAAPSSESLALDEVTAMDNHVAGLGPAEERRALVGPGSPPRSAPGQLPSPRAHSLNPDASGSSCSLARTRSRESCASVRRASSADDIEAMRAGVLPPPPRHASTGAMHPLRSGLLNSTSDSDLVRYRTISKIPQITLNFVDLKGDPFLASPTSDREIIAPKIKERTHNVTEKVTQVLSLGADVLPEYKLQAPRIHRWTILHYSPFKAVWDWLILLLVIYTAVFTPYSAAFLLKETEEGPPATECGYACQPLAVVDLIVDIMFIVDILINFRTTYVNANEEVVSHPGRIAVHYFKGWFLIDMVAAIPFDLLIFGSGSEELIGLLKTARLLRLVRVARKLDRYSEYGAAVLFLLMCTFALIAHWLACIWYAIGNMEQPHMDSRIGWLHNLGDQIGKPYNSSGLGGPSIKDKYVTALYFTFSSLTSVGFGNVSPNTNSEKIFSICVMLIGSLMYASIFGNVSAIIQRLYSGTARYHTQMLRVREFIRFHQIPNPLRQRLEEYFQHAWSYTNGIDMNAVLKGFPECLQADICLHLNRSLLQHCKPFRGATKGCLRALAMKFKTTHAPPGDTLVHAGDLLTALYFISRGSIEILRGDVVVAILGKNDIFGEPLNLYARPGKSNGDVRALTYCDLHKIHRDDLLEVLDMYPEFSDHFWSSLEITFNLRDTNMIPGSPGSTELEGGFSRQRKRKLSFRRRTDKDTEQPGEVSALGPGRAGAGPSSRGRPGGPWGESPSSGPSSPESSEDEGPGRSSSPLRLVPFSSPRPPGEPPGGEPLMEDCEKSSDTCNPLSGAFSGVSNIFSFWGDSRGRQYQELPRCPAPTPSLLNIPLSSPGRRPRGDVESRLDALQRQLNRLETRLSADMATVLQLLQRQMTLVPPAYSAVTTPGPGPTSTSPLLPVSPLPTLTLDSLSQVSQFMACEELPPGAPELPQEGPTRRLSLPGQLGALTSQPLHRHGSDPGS
Protocol: HERG currents are recorded by the whole cell mode of patch clamp electrophysiology as described by Hamill et al.^3 HERG is stably over expressed in HEK cells. Microelectrodes are pulled from borosilicate glass (TW150) and heat polished (tip resistance, 1.5 to 3 megaohms). The external solution is standard Tyrodes solution. The internal (microelectrode) solution contained: 110 mM KCl, 5 mM K2ATP, 5 mM K4BAPTA, 1 mM MgCl2 and 10 mM HEPES, adjusted to pH 7.2 with KOH. […] Compounds are prepared as 10-20 mM DMSO stocks and diluted to appropriate test concentrations. […] Inhibition of HERG is measured at the peak of the tail currents and expressed relative to controls. Initial HERG activity is estimated by single point determinations run at 10 μM. Concentration response curves are generated for appropriate compounds utilizing at least four concentrations and an n=3. Curve fitting and IC50 estimating are done using Graphpad software (Ver. 4). • 1.

[1] = 1.0 μM, single point, Kv1.5 stably over expressed in HEK or LTK- cells

T1 sequence (P22460 whole entry): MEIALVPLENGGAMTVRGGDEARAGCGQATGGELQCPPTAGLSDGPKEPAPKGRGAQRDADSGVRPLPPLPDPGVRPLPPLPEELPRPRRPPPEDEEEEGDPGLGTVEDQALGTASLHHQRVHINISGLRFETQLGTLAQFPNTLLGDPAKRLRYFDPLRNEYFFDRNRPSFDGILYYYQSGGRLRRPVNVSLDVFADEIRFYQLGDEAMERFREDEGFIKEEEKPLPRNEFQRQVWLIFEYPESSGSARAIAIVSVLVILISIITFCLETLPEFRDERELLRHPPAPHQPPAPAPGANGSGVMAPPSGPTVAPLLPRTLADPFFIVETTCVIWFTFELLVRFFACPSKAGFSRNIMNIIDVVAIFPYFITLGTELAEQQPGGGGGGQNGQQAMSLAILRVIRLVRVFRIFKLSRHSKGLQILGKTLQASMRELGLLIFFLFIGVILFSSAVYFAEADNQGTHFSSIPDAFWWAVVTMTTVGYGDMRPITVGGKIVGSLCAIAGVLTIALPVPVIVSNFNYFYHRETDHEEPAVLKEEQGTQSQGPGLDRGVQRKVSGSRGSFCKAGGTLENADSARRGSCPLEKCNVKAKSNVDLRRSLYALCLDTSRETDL

inhibition at 1 µM (Kv1.5; [1]) [%]	IC50 (L-type calcium channels) [µM]	IC50 (Kv1.5) [µM]	Compound	inhibition at 10 µM (HERG) [%]	IC50 (HERG) [µM]	Kv1.5% inhibition @ 1.0 μM (Kv1.5; [1]) [%]
72	4.5		COc1ccc(CCCN2C(=O)N(N)CC2c2ccc(C3CC3)cc2)cc1 (centres unmarked) [Compound 4, 1-Amino-4-(4-cyclopropylphenyl)-3-[3-(4-methoxyphenyl)propyl]-2-imidazolidinone]	53		
53	12		COc1ccc(CCN2C(=O)N(N)CC2c2ccc(C3CC3)cc2)cc1 (centres unmarked) [Compound 6, 1-Amino-3-[2-(4-methoxyphenyl)ethyl]-4-(4-cyclopropylphenyl)-2-imidazolidinone 4-methylbenzenesulfonic acid salt]	29		
92	43	0.232	COc1ccc(CCN2C(=O)N(NS(C)(=O)=O)CC2c2ccc(C)c(C)c2)cc1 (centres unmarked) [Compound 7, 1-(Methylsulfonylamino)-3-[2-(4-methoxyphenyl)ethyl]-4-(3,4-dimethylphenyl)-2-imidazolidinone]	16		
90	15		COc1ccc(CCN2C(=O)N(NS(N)(=O)=O)CC2c2ccc(C)c(C)c2)cc1 (centres unmarked) [Compound 8, 1-(Aminosulfonylamino)-3-[2-(4-methoxyphenyl)ethyl]-4-(3,4-dimethylphenyl)-2-imidazolidinone]	16		
90	23	0.689	COc1ccc(CCN2C(=O)N(NS(N)(=O)=O)CC2c2ccc(C(C)(C)C)cc2)cc1 (centres unmarked) [Compound 9, 1-(Aminosulfonylamino)-3-[2-(4-methoxyphenyl)ethyl]-4-[4-(tert-butyl)phenyl]-2-imidazolidinone]	62	7.3	
89	22	0.238	COc1ccc(CCN2C(=O)N(NS(N)(=O)=O)CC2c2ccc(C3CC3)cc2)cc1 (centres unmarked) [Compound 10, 1-(Aminosulfonylamino)-3-[2-(4-methoxyphenyl)ethyl]-4-[(4-cyclopropyl)-phenyl]-2-imidazolidinone]	57		
95	13		COc1ccc(CCN2C(=O)N(NS(C)(=O)=O)CC2Cc2ccc(C(C)(C)C)cc2)cc1 (centres unmarked) [Compound 11, 1-(Methylsulfonylamino)-3-[2-(4-methoxyphenyl)ethyl]-4-[(4-tert-butyl)benzyl]-2-imidazolidinone]	45		
82	38		COc1ccc(CCN2C(=O)N(NS(C)(=O)=O)CC2c2ccc(OC)c(C)c2)cc1 (centres unmarked) [Compound 12, 1-(Methylsulfonylamino)-3-[2-(4-methoxyphenyl)ethyl]-4-[(3-methyl-4-methoxy)phenyl]-2-imidazolidinone]	19		
83	27		COc1ccc(CCN2C(=O)N(NS(C)(=O)=O)CC2c2ccc(C)c(OC)c2)cc1 (centres unmarked) [Compound 13, 1-(Methylsulfonylamino)-3-[2-(4-methoxyphenyl)ethyl]-4-[(3-methoxy-4-methyl)phenyl]-2-imidazolidinone]	10		
89	40		COc1ccc(CCN2C(=O)N(NS(C)(=O)=O)CC2c2ccc3c(c2)OCCO3)cc1 (centres unmarked) [Compound 17, 1-(Methylsulfonylamino)-3-[2-(4-methoxyphenyl)ethyl]-4-[(2,3-dihydro-benzo[1,4]dioxin-6-yl)]-2-imidazolidinone]	22		
59	24		COc1ccc(CCN2C(=O)N(NS(C)(=O)=O)CC2c2ccc3c(c2)OC(C)(C)O3)cc1 (centres unmarked) [Compound 18, 1-(Methylsulfonylamino)-3-[2-(4-methoxyphenyl)ethyl]-4-(2,2-dimethylbenzo-[1,3]dioxol-5-yl)-2-imidazolidinone]	12		
69	6.7		CCCCS(=O)(=O)NN1CC(c2ccc(C(C)(C)C)cc2)N(CCc2ccc(OC)cc2)C1=O (centres unmarked) [Compound 32, 1-(Butylsulfonylamino)-3-[(4-methoxyphenyl)-ethyl]-4-[4-(tert-butyl)phenyl]-2-imidazolidinone]			
81	12		COc1ccc(CCN2C(=O)N(NS(=O)(=O)CCl)CC2c2ccc(C(C)(C)C)cc2)cc1 (centres unmarked) [Compound 39, 1-(Chloromethylsulfonylamino)-3-[2-(4-methoxyphenyl)ethyl]-4-(4-tert-butyl-phenyl)-2-imidazolidinone]			
29	29		COc1ccc(CCN2C(=O)N(NS(=O)(=O)CC(=O)N(C)C)CC2c2ccc(OC)cc2)cc1 (centres unmarked) [Compound 55, 1-[[2-(Dimethylamino)-2-oxoethyl]sulfonylamino]-3-[2-(4-methoxyphenyl)-ethyl]-4-(4-methoxyphenyl)-2-imidazolidinone]			
81	18		COc1ccc(CCN2C(=O)N(NC(=O)C3CC3)CC2c2ccc(C)c(C)c2)cc1 (centres unmarked) [Compound 72, Cyclopropanecarboxylic acid N-{3-[2-(4-methoxyphenyl)ethyl]-4-(3,4-dimethylphenyl)-2-oxo-imidazolidin-1-yl}-amide]			
85	25		COc1ccc(CCN2C(=O)N(NC(=O)c3ccco3)CC2c2ccc(C)c(C)c2)cc1 (centres unmarked) [Compound 74, 1-(2-Furanoylamino)-3-[2-(4-Methoxyphenyl)ethyl]-4-(3,4-dimethylphenyl)-2-imidazolidinone]			
75	11		COc1ccc(CCN2C(=O)N(NC(=O)c3ccno3)CC2c2ccc(C)c(C)c2)cc1 (centres unmarked) [Compound 78, 1-(Isoxazol-5-ylcarbonylamino)-3-[2-(4-methoxyphenyl)-ethyl]-4-(3,4-dimethylphenyl)-2-imidazolidinone]			
78	4		COc1ccc(CCN2C(=O)N(NC(=O)CN(C)Cc3ccccc3)CC2c2ccc(C(C)(C)C)cc2)cc1 (centres unmarked) [Compound 81, 2-(Benzylmethylamino)-N-{4-[4-(tert-butyl)phenyl]-3-[2-(4-methoxyphenyl)-ethyl]-2-oxo-imidazolidin-1-yl}-acetamide]			
57	6		COc1ccc(CCN2C(=O)N(NCc3ccccc3)CC2c2ccc(C(C)(C)C)cc2)cc1 (centres unmarked) [Compound 87, 1-Benzylamino-3-[2-(4-methoxyphenyl)ethyl]-4-[4-(tert-butyl)phenyl]-2-imidazolidinone]			
85	4		COc1ccc(CCN2C(=O)N(NCc3ccc(N(C)C)cc3)CC2c2ccc(C(C)(C)C)cc2)cc1 (centres unmarked) [Compound 91, 1-[(4-(Dimethylamino)phenylmethyl)amino]-3-[2-(4-methoxyphenyl)ethyl]-4-[4-(tert-butyl)phenyl]-2-imidazolidinone]			
81	3.5		COc1ccc(CCN2C(=O)N(NCCc3ccccc3)CC2c2ccc(C)c(C)c2)cc1 (centres unmarked) [Compound 97, 1-[(Phenylethyl)amino]-3-[2-(4-methoxyphenyl)ethyl]-4-(3,4-dimethylphenyl)-2-imidazolidinone]			
83	4.8		COc1ccc(CCN2C(=O)N(NCc3ccc(-n4ccnc4)cc3)CC2c2ccc(C)c(C)c2)cc1 (centres unmarked) [Compound 98, 1-[(4-(1H-imidazol-1-yl)phenylmethyl)amino]-3-[2-(4-methoxyphenyl)ethyl]-4-(3,4-dimethylphenyl)-2-imidazolidinone]			
9			CCC1(CC)CN(NS(C)(=O)=O)C(=O)N1CCc1ccc(OC)cc1 [Compound 111, N-{4,4-diethyl-3-[2-(4-methoxyphenyl)ethyl]-2-oxoimidazolidin-1-yl}methanesulfonamide]	33		
8			CCCCC1CN(NS(C)(=O)=O)C(=O)N1CCc1ccc(OC)cc1 (centres unmarked) [Compound 128, N-{4-butyl-3-[2-(4-methoxyphenyl)ethyl]-2-oxoimidazolidin-1-yl}methanesulfonamide]	19		
53	8		COC(=O)c1ccc(NN2CC(c3ccc(C)c(C)c3)N(CCc3ccc(OC)cc3)C2=O)c(N)c1 (centres unmarked) [Compound 135, methyl 3-amino-4-({4-(3,4-dimethylphenyl)-3-[2-(4-methoxyphenyl)ethyl]-2-oxoimidazolidin-1-yl}amino)benzoate]			
40			COc1ccc(C2CN(NS(C)(=O)=O)C(=O)N2CCc2ccc(OC(F)F)cc2)cc1 (centres unmarked) [Compound 142, N-[3-{2-[4-(difluoromethoxy)phenyl]ethyl}-4-(4-methoxyphenyl)-2-oxoimidazolidin-1-yl]methanesulfonamide]	91		
16			COc1ccc(CCN2C(=O)N(NS(C)(=O)=O)CC2C2CCCCC2)cc1 (centres unmarked) [Compound 145, N-{4-cyclohexyl-3-[2-(4-methoxyphenyl)ethyl]-2-oxoimidazolidin-1-yl}methanesulfonamide]	11		

Compound	inhibition at 1 µM (Kv1.5; [1]) [%]	IC50 (L-type calcium channels) [µM]	IC50 (Kv1.5) [µM]	inhibition at 10 µM (HERG) [%]	IC50 (HERG) [µM]	Kv1.5% inhibition @ 1.0 μM (Kv1.5; [1]) [%]
tert-butyl [2-({4-(4-tert-butylphenyl)-3-[2-(4-methoxyphenyl)ethyl]-2-oxoimidazolidin-1-yl}amino)-2-oxoethyl]methylcarbamate [Compound 109]		4.6				71
